Test system: T1, Na+-stimulated ATPase (likely F1F0-ATPase)
T1 construct: gene atpD
Assay: inorganic phosphate release, Lineweaver-Burk plot
Format: biochemical, Aphanothece halophytica
Settings: 20 mM Tris-HCl pH 7.6, 5 mM MgCl2, 10 mM NaCl; detergent-solubilised enzyme; read-out: apparent Km

Km: 1200 µM
Compound: Nc1ncnc2c1ncn2[C@@H]1O[C@H](COP(=O)(O)OP(=O)(O)OP(=O)(O)O)[C@@H](O)[C@H]1O [ATP]

Reference: article PMC2928168, “Na^+-stimulated ATPase of alkaliphilic halotolerant cyanobacterium Aphanothece halophytica translocates Na^+ into proteoliposomes via Na^+ uniport mechanism” (BMC Biochemistry, 2010)
